# Measured values taken from patent US7723417B2, “Fluorochemical composition and method for treating a substrate therewith” (3M Innovative Properties Company, priority 2004, dated 2010).
# Where a name gives a salt, the structure may show the parent alone.
# Assay: Water solubility of an additive
# Format: physicochemical
# Conditions: 25° C., demineralized water
# Description: The water solubility of an additive was determined at ambient conditions (25° C.) in demineralized water. Measured quantities of additive and demineralized water were combined and shaken for up to two hours. The additive was deemed soluble if a clear solution resulted; the additive was otherwise deemed insoluble. The water solubility of an additive is the maximum concentration of additive producing a clear solution in water.
row,Molecule,Solubility H2O [w %]
1,"C=C(C)C(=O)OCC(CO)OC(=O)C(=C)C (stereo not drawn) [GDM, Glycerol dimethacrylate]",0.4
2,"CCCCOC(=O)CC(O)C(=O)OCCCC (stereo not drawn) [DBM, Dibutyl malate]",0.2
3,"CCCCOC(=O)CC(CC(=O)OCCCC)(OC(C)=O)C(=O)OCCCC [ATBC, Acetyl tributyl citrate]",<0.1
4,"CC(C)OC(=O)C(O)C(O)C(=O)OC(C)C (stereo not drawn) [DIPT, Diisopropyl tartarate]",>10
5,"CCOC(=O)CC(O)C(=O)OCC (stereo not drawn) [DEM, Diethyl malate]",>10
6,"CCCCOC(=O)C(O)C(O)C(=O)OCCCC (stereo not drawn) [DBT, Dibutyl tartarate]",0.8
7,"COC(=O)CC(O)(CC(=O)OC)C(=O)OC [TMC, Trimethyl citrate]",6
8,C4H9(OC3H6)3—OH [DTPnB],3
9,"CCCCOC(=O)CC(O)(CC(=O)OCCCC)C(=O)OCCCC [TBC, Tributyl citrate]",<0.05
